Tests used:
[1] = target: T1, unphosphorylated PDGFRβ kinase (uPDGFRβ, Seq. ID No. 3) (Homo sapiens, UniProt P09619); experiment: uPDGFRβ kinase enzymatic assay (pyruvate kinase/lactate dehydrogenase coupled); type: biochemical; details: ATP 500 μM, rate 1.5 to 2.5 h
T1 construct: purchased DeCode
How it was run: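 Unphosphorylated PDGFRβ (15.7 nM) with 500 μM ATP and poly E4Y (2.5 mg/mL) in Tris pH 7.5, 0.2% octyl-glucoside, 1% DMSO; ADP coupled via PK/LDH to NADH oxidation at A340, read continuously 4 h at 30 °C. Rates from 1.5–2.5 h window versus no-compound control gave IC50.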

[2] = target: T2, unphosphorylated c-KIT kinase (uKIT, Seq. ID no. 2) (Homo sapiens, UniProt P10721); experiment: uKit kinase enzymatic assay (pyruvate kinase/lactate dehydrogenase coupled); type: biochemical; details: ATP 2000 μM, rate 3 to 4 h
T2 construct: uKit with N-terminal GST fusion used for screening
How it was run: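 Coupled pyruvate kinase/lactate dehydrogenase readout of ADP, following NADH oxidation at A340 continuously for 4 h at 30 °C. Mix: 12 nM unphosphorylated KIT, 1 mg/mL polyE4Y, 2000 μM ATP, 10 mM MgCl2, 90 mM Tris pH 7.5, 0.2% octyl-glucoside, 1% DMSO. IC50 from % inhibition of rates at 3–4 h.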

M-NFS-60 cells = experiment: M-NFS-60 cell proliferation assay (resazurin); type: cell-based; details: 67 h incubation
How it was run: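 Cells kept in medium containing 20 ng/mL mouse recombinant M-CSF. Fluorescence was read at ex 540/em 600 nm, and IC50 was fitted from percent inhibition across a range of inhibitor concentrations.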

[3] = tested on: phospho-FMS in THP-1 cells; experiment: Phospho-FMS ELISA assay in THP-1 cells; type: cell-based; details: Homo sapiens, 4 h compound, M-CSF stimulation 5 min, read-out: pFMS inhibition in THP-1 cells
Experimental: THP-1 cells (catalog #TIB-202) were obtained from the ATCC. Briefly, cells were grown in RPMI 1640 supplemented with 10% characterized fetal bovine serum, 1% sodium pyruvate, 1% Penicillin-Streptomycin-Glutamine (PSG) and 55 uM 2-mercaptoethanol (Invitrogen, Carlsbad, Calif.) at 37 degrees Celsius, 5% CO2, 95% humidity. Cells were allowed to expand until reaching 70-95% confluency at which point they were subcultured or harvested for assay use.
A serial dilution of test compound was diluted 1:100 in assay medium (RPMI 1640 supplemented with 10% characterized fetal bovine serum) in a 96 well black clear bottom plate (Corning, Corning, N.Y.). In a separate 96 well black clear bottom plate, one hundred and fifty thousand THP-1 cells were added per well in 100 μL in assay medium. Fifty microliters of diluted compound was then added to the cells. Plates were incubated for 4 hours at 37 degrees Celsius, 5% CO2, 95% humidity. At the end of the incubation period, cells were stimulated with 50 μL of a 100 nM solution of recombinant human M-CSF (catalog #216-MC, R & D Systems, Minneapolis, Minn.) in assay medium and the plate was incubated for 5 minutes at 37 degrees Celsius, 5% CO2, 95% humidity. Lysates were prepared and used to perform the phospho-FMS ELISA as described by the manufacturer (catalog #DYC3268, R & D Systems, Minneapolis, Minn.). GraphPad Prism was used to calculate IC50 values obtained from data generated from the ELISA assay.

T1 sequence (P09619 557-1106): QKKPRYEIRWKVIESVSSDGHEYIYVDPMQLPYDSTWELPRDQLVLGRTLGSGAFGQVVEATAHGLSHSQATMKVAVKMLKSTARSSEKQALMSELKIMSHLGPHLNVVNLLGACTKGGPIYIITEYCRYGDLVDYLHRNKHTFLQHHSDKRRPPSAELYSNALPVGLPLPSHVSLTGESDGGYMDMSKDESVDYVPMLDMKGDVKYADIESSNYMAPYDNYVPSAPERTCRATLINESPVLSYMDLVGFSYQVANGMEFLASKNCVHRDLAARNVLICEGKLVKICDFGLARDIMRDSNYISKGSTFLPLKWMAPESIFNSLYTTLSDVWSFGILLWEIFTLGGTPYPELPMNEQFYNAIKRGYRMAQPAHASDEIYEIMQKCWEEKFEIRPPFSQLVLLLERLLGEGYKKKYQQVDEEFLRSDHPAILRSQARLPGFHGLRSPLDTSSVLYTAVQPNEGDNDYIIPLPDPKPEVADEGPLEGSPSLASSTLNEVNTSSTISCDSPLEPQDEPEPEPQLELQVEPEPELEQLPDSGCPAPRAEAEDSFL
T2 sequence (P10721 with tags, fused parts or gaps): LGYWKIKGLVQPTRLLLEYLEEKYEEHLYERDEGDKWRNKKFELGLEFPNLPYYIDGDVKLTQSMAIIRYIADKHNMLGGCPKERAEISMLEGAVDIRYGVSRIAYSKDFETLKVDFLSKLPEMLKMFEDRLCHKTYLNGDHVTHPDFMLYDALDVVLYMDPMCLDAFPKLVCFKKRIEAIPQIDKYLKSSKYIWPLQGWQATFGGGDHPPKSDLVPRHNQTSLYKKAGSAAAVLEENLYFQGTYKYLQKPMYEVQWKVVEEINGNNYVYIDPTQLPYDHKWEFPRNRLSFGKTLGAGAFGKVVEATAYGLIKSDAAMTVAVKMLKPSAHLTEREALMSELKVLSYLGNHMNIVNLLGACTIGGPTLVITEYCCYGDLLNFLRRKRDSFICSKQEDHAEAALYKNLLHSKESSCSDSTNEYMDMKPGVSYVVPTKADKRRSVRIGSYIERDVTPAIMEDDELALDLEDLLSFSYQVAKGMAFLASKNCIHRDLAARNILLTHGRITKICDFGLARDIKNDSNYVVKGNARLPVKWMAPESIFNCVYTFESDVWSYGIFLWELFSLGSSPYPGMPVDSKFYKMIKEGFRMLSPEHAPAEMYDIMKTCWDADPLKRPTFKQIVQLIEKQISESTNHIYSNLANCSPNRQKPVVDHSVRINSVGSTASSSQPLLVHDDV

Compound | IC50 [1] [nM] | IC50 [2] [nM] | IC50 (M-NFS-60 cells) [nM] | IC50 [3] [nM]
Cc1nc(-n2nc(C3(C)CC3)[nH]c2=O)ccc1Oc1ccnc(-c2cnn(C)c2)c1 [Example 27, 1-(6-methyl-5-((2-(1-methyl-1H-pyrazol-4-yl)pyridin-4-yl)oxy)pyridin-2-yl)-3-(1-methylcyclopropyl)-1H-1,2,4-triazol-5(4H)-one] | > 1000 | 100 to 1000 | 10 to 100 | 10 to 100
Cc1nc(-n2nc(C(C)(C)C)[nH]c2=O)ccc1Oc1ccnc(NC(=O)N(C)C)c1 [Example 30, 3-(4-((6-(3-(tert-butyl)-5-oxo-4,5-dihydro-1H-1,2,4-triazol-1-yl)-2-methylpyridin-3-yl)oxy)pyridin-2-yl)-1,1-dimethylurea] | > 1000 | > 1000 | > 1000 | 100 to 1000
Cc1cc(-n2nc(C(C)(C)C)[nH]c2=O)ncc1Oc1ccnc(-c2cnn(C)c2)c1 [Example 31, 3-(tert-butyl)-1-(4-methyl-5-((2-(1-methyl-1H-pyrazol-4-yl)pyridin-4-yl)oxy)pyridin-2-yl)-1H-1,2,4-triazol-5(4H)-one] | 100 to 1000 | 10 to 100 | 10 to 100 | 10 to 100
Cc1cc(-n2nc(C(C)(C)C)[nH]c2=O)nc(C)c1Oc1ccnc(-c2cnn(C)c2)c1 [Example 33, 3-(tert-butyl)-1-(4,6-dimethyl-5-((2-(1-methyl-1H-pyrazol-4-yl)pyridin-4-yl)oxy)pyridin-2-yl)-1H-1,2,4-triazol-5(4H)-one] | 100 to 1000 | 100 to 1000 | 100 to 1000 | 10 to 100
Cc1nc(-n2nc(CC(C)(C)C)[nH]c2=O)ccc1Oc1ccnc(-c2cnn(C)c2)c1 [Example 36, 1-(6-methyl-5-((2-(1-methyl-1H-pyrazol-4-yl)pyridin-4-yl)oxy)pyridin-2-yl)-3-neopentyl-1H-1,2,4-triazol-5(4H)-one] | 100 to 1000 | 10 to 100 | 10 to 100 | 10 to 100
Cc1nc(-n2nc(C3CCC3)[nH]c2=O)ccc1Oc1ccnc(-c2cnn(C)c2)c1 [Example 37, 3-cyclobutyl-1-(6-methyl-5-((2-(1-methyl-1H-pyrazol-4-yl)pyridin-4-yl)oxy)pyridin-2-yl)-1H-1,2,4-triazol-5(4H)-one] | 100 to 1000 | 100 to 1000 | 10 to 100 | ≤ 10
CCn1cc(-c2cc(Oc3ccc(-n4nc(C(C)(C)C)[nH]c4=O)nc3C)ccn2)cn1 [Example 38, 3-(tert-butyl)-1-(5-((2-(1-ethyl-1H-pyrazol-4-yl)pyridin-4-yl)oxy)-6-methylpyridin-2-yl)-1H-1,2,4-triazol-5(4H)-one] | > 1000 | > 1000 | 10 to 100 | 100 to 1000
Cc1nc(-n2nc(C(C)(C)C)[nH]c2=O)ccc1Oc1ccnc(-c2cnco2)c1 [Example 39, 3-(tert-butyl)-1-(6-methyl-5-((2-(oxazol-5-yl)pyridin-4-yl)oxy)pyridin-2-yl)-1H-1,2,4-triazol-5(4H)-one] | > 1000 | > 1000 | 10 to 100 | 100 to 1000
Cc1nc(-n2nc(C3(C(F)(F)F)CCC3)[nH]c2=O)ccc1Oc1ccnc(-c2cnn(C)c2)c1 [Example 43, 1-(6-methyl-5-((2-(1-methyl-1H-pyrazol-4-yl)pyridin-4-yl)oxy)pyridin-2-yl)-3-(1-(trifluoromethyl)cyclobutyl)-1H-1,2,4-triazol-5(4H)-one] | 100 to 1000 | 10 to 100 | 100 to 1000 | 100 to 1000
COCC(C)(C)c1nn(-c2ccc(Oc3ccnc(-c4cnn(C)c4)c3)c(C)n2)c(=O)[nH]1 [Example 46, 3-(1-methoxy-2-methylpropan-2-yl)-1-(6-methyl-5-((2-(1-methyl-1H-pyrazol-4-yl)pyridin-4-yl)oxy)pyridin-2-yl)-1H-1,2,4-triazol-5(4H)-one] | > 1000 | 100 to 1000 | 100 to 1000 | 100 to 1000
Cc1nc(-n2nc(C(C)(C)C)[nH]c2=O)ccc1Oc1cc(-c2cnn(C)c2)ncn1 [Example 47, 3-(tert-butyl)-1-(6-methyl-5-((6-(1-methyl-1H-pyrazol-4-yl)pyrimidin-4-yl)oxy)pyridin-2-yl)-1H-1,2,4-triazol-5(4H)-one] | > 1000 | > 1000 | 100 to 1000 | 10 to 100
Cc1nc(-n2cc(C(C)(C)C)[nH]c2=O)ccc1Oc1ccnc(-c2cnn(C)c2)c1 [Example 48, 4-(tert-butyl)-1-(6-methyl-5-((2-(1-methyl-1H-pyrazol-4-yl)pyridin-4-yl)oxy)pyridin-2-yl)-1H-imidazol-2(3H)-one] | > 1000 | > 1000 | 10 to 100 | 10 to 100
Cc1nc(-n2nc(C(C)(C)C)oc2=O)ccc1Oc1ccnc(-c2cnn(C)c2)c1 [Example 49, 5-(tert-butyl)-3-(6-methyl-5-((2-(1-methyl-1H-pyrazol-4-yl)pyridin-4-yl)oxy)pyridin-2-yl)-1,3,4-oxadiazol-2(3H)-one] | > 1000 | 100 to 1000 | 10 to 100 | 10 to 100
